“Also recorded” adds a separate entry of the source.
Legend:
Creb312 [1] = assay: Proteolytic cleavage of HA-tagged full-length Creb312 to the nuclear form in NRVM after chemical ER stressors or hypertrophic agonists (Western Blot, anti-HA); format: cell-based, rat
Method: Isolation of neonatal rat ventricular cardiomyocytes. All procedures described below were conducted according to the guidelines of the Harvard University Animal Care and Use Committee. Ventricular myocytes were isolated from 2 day-old Sprague Dawley rats as briefly described. Excised ventricular tissue was agitated in a 0.1% trypsin solution cooled to 4° C. for approximately 14 hours. Trypsinized ventricles were dissociated into their cellular constituents via serial exposure to a 0.1% solution of collagenase type II at 37° C. for 2 minutes. The myocyte portion of the cell population was enriched by passing the dissociated cell solution through a nylon mesh with 40 μm pores, and then pre-plating twice for 45 minutes each time. 10^6 isolated myocytes were seeded onto silicon membranes coated with fibronectin in culture medium consisting of M199 base supplemented with 10% heat-inactivated Fetal Bovine Serum, 10 mM HEPES, 20 mM glucose, 2 mM L-glutamine, 1.5 ? M vitamin B-12, and 50 U/ml penicillin. On the second day of culture, the serum concentration of the medium was reduced to 2%, and the medium was changed every 48 hours thereafter.
Adenovirus preparation and infection. Replication-defective recombinant adenoviruses expressing GFP and either HA-Creb312(FL) or HA-Creb312(N) under the control of CMV in bicistronic cassettes were generated using the AdEasy XL system (Stratagene). Briefly, HA-Creb312(FL) or HA-Creb312(N) were subcloned into the adenovirus shuttle vector pAdTrack-CMV (generous gift by Bert Vogelstein, Ref), and these constructs used for the generation of Ad.Creb312(FL) or Ad.Creb312(N), respectively, according to manufacturer's instructions. Adenoviral shuttle constructs for the expression of miRNAs against rat ILK, rat FAK, rat Creb312 under the control of hCMV were obtained by subcloning the XbaI/HindIII fragments of the respective miRNA expression constructs in pcDNA6-GW/EmGFP-miR (Invitrogen) into pShuttle (Stratagene). The recombinant adenoviruses were concentrated and purified by CsCl gradient ultracentrifugation, and the virus titer was determined through plaque assay.
NRVM were transduced with adenovirus at 5 moi (multiplicity of infection) in serum-free M199 for 90 min and maintained for 48 h in M-199/2% FCS before mechanical stretch, hypoxia experiments or treatment with chemicals.
Treatment with chemical ER stressors, cardiac hypertrophic agonists, hypoxic stress. 5×10^5 NRVM were plated in 6 well plates, transduced with Ad.Creb312(FL) and treated 48 h afterwards with tunicamycin (Tm), thapsigargin (Tg), brefeldin A (BFA) or DTT (1 mM) for 30 min and harvested for immunoblot analyses. Alternatively, NRVM were treated with phenylephrine, angiotensin II, endothelin or isoproterenol for 24 h. For hypoxic stress, 5×10^5 NRVM were plated in 6 well plates and switched from 20% O2/5% CO2 to 0.1% O2/5% CO2 for the indicated times.
Immunoprecipitation and Immunoblot. For immunoprecipitation, 10 μg pcDNA3/3xFlag-Creb312(N) were transfected into COS7 cells with Fugene HD (Roche). 48 h later, cells were washed once with PBS, harvested and lysed in 50 mM Tris-HCl pH 7.4, 150 mM NaCl, 1% Triton X-100 and Complete Protease Inhibitor (Roche) on ice. After centrifugation at 13000 rpm, 30 min, 4C, the supernatant was used for subsequent experiments. Embryonic hearts of various stages were homogenized in ice-cold PBS with a Rotor-Stator Homogenizer, and nuclear extracts were prepared from the cell pellets using the NE-PER Nuclear and Cytoplasmic Extraction Reagents (Pierce). Protein concentrations were determined with the Protein Assay Dye Reagent (Bio-Rad). 1.8 mg 3× Flag-Creb312(N) protein extract and 25 μg heart nuclear extract were rotated with 40 μl anti-Flag M2 Affinity gel (Sigma) at 4C over night. […]

Creb312 [2] = assay: Formation of nuclear Creb312 in Ad.Creb312(FL)-transduced NRVM under biaxial mechanical stretch after pathway inhibition (immunoblot); format: cell-based, rat; conditions: NRVM with Ad.Creb312(FL), inhibitor 30 min prior to 10% pulsary (cyclic) biaxial stretch, Akt1/2 inhibitor 1 μM, SH6 10 μM, LY294002 10 μM, PD98059 25 μM, U0126 10 μM, SP600125 10 μM, PP2 1 μM, SB203580 25 μM, wortmannin 200 nM, FIG. 5
Method: Biaxial mechanical stretch experiments. Freshly isolated NRVM were seeded at 10^6 on fibronectin-coated silicon membranes and transduced with Ad.Creb312(FL) 48 h later. 2 days later, biaxial mechanical stretch experiments were carried out on devices as previously described (Ref, Andre Kleber paper) for indicated times. Cells were rinsed once in ice-cold PBS, harvested, lysed and processed for immunoblot. For inhibition experiments, NRVM were treated with chemical inhibitors for 30 min prior to stretching. All chemical inhibitors used were from Calbiochem except Akt1/2 inhibitor and wortmannin (Sigma). Concentrations used were: Akt1/2 inhibitor (1 μM), SH6 (10 μM), LY294002 (10 μM), PD98059 (25 μM), U0126 (10 μM), SP600125 (10 μM), PP2 (1 μM), SB203580 (25 μM), wortmannin (200 nM). […]
Immunoprecipitation and Immunoblot. For immunoprecipitation, 10 μg pcDNA3/3xFlag-Creb312(N) were transfected into COS7 cells with Fugene HD (Roche). 48 h later, cells were washed once with PBS, harvested and lysed in 50 mM Tris-HCl pH 7.4, 150 mM NaCl, 1% Triton X-100 and Complete Protease Inhibitor (Roche) on ice. After centrifugation at 13000 rpm, 30 min, 4C, the supernatant was used for subsequent experiments. Embryonic hearts of various stages were homogenized in ice-cold PBS with a Rotor-Stator Homogenizer, and nuclear extracts were prepared from the cell pellets using the NE-PER Nuclear and Cytoplasmic Extraction Reagents (Pierce). Protein concentrations were determined with the Protein Assay Dye Reagent (Bio-Rad). 1.8 mg 3× Flag-Creb312(N) protein extract and 25 μg heart nuclear extract were rotated with 40 μl anti-Flag M2 Affinity gel (Sigma) at 4C over night. Resins were washed twice each with 50 mM Tris-HCl pH 7.4, 150 mM NaCl with or without 0.1% Triton X-100, eluted with 15 μg 3× Flag peptide (Sigma), and 25 μl or 75 μl eluate were loaded on 10% SDS-polyacrylamide gels for subsequent immunoblot analysis. For immunoblots of mechanical stretch- or chemically treated-cardiomyocytes, 25 μg total cell extract were separated on 10% SDS-polyacrylamide gels. Primary antibodies used were: anti-Flag M2 (Sigma, 1:200), anti-HA (Bethyl, 1:4000), anti-Creb312 (1:2000), anti-phospho (Ser473)Akt (Cell Signaling, 1:1000), anti-phospho (Thr308)Akt (Cell Signaling, 1:1000), anti-Akt (Cell Signaling, 1:1000), anti-phospho p44/42 (Cell Signaling, 1:1000). Secondary antibodies (horseradish peroxidase-conjugated rabbit anti-mouse IgG or goat anti-rabbit IgG, Dako) were used at 1:10^5′ and immunoblots were developed with SuperSignal West Femto Substrate (Pierce).

ANF promoter region = assay: ANF promoter regulated luciferase gene expression assay; format: cell-based; conditions: 700 bp promoter region of ANF; 50 ng DNA; FIG. 8B
Text: (§1) FIGS. 8A-8D show the nuclear form of Creb312 activates BNP regulated luciferase gene expression.

BNP promoter region = assay: BNP promoter regulated luciferase gene expression assay; format: cell-based; conditions: for BNP regulated luciferase gene expression: 10 ng DNA
Text: as §1

[3] = NRVM transduced with Ad.Creb312(FL), ER stress-inducing chemicals, within one hour, Western Blot anti-HA
[4] = NRVM expressing HA-Creb312(FL), 24 h exposure to hypertrophic agonists, FIG. 4D

O[C@H](CS)[C@H](O)CS (racemic) [DTT, dithiothreitol]
proteolytic cleavage of Creb312 (formation of the nuclear form) (Creb312 [1]; [3]): to a lesser extend

O=c1[nH]c2ccccc2n1C1CCN(Cc2ccc(-c3nc4cc5[nH]cnc5cc4nc3-c3ccccc3)cc2)CC1 [Akt1/2]
effect on formation of the proteolytically cleaved, nuclear form of Creb312 in response to mechanical stretch (Creb312 [2]): complete ablation | effect on formation of the proteolytically cleaved, nuclear form of Creb312 in response to mechanical stretch (Creb312 [2]; listed as Akt1/2 Inh): completely inhibited

COc1cccc(-c2cc(=O)c3ccccc3o2)c1N [PD98059]
effect on formation of the proteolytically cleaved, nuclear form of Creb312 in response to mechanical stretch (Creb312 [2]): did not show any effect; also recorded: did not inhibit

CC(C)(C)n1nc(-c2ccc(Cl)cc2)c2c(N)ncnc21 [PP2]
effect on formation of the proteolytically cleaved, nuclear form of Creb312 in response to mechanical stretch (Creb312 [2]): did not show any effect; also recorded: did not inhibit

C[S+]([O-])c1ccc(-c2nc(-c3ccncc3)c(-c3ccc(F)cc3)[nH]2)cc1 (centres unmarked) [SB203580]
effect on formation of the proteolytically cleaved, nuclear form of Creb312 in response to mechanical stretch (Creb312 [2]): did not show any effect; also recorded: did not inhibit

Oc1c2ccccc2c2c3c(cccc13)N=N2 [SP600125]
effect on formation of the proteolytically cleaved, nuclear form of Creb312 in response to mechanical stretch (Creb312 [2]): did not inhibit

N#CC(=C(/N)Sc1ccccc1N)/C(C#N)=C(\N)Sc1ccccc1N [U0126]
effect on formation of the proteolytically cleaved, nuclear form of Creb312 in response to mechanical stretch (Creb312 [2]): did not show any effect; also recorded: did not inhibit

C[C@H]1CCC/C=C/[C@@H]2C[C@H](O)C[C@H]2[C@H](O)/C=C/C(=O)O1 [brefeldinA]
proteolytic cleavage of Creb312 (formation of the nuclear form) (Creb312 [1]; [3]): caused proteolytic cleavage of Creb312

CCCC(=O)Nc1ncnc2c1ncn2[C@@H]1O[C@@H]2COP(=O)(O)O[C@H]2[C@H]1OC(=O)CCC [dbcA]
formation of nuclear Creb312 in response to cAMP treatment (Creb312 [1]; NRVM, data not shown): nuclear Creb312 is formed

CC[C@H](C)[C@H](NC(=O)[C@H](CC(=O)O)NC(=O)[C@H](CC(C)C)NC(=O)[C@H](Cc1c[nH]cn1)NC(=O)[C@@H]1CSSC[C@H](N)C(=O)N[C@@H](CO)C(=O)N[C@H]2CSSC[C@H](NC(=O)[C@H](CCC(=O)O)NC(=O)[C@H](CCCCN)NC(=O)[C@H](CC(=O)O)NC(=O)[C@H](CCSC)NC(=O)[C@H](CC(C)C)NC(=O)[C@H](CO)NC(=O)[C@H](CO)NC2=O)C(=O)N[C@@H](C(C)C)C(=O)N[C@@H](Cc2ccc(O)cc2)C(=O)N[C@@H](Cc2ccccc2)C(=O)N1)C(=O)N[C@H](C(=O)N[C@@H](Cc1c[nH]c2ccccc12)C(=O)O)[C@@H](C)CC [endothelin-1]
proteolytic cleavage of Creb312 (formation of the nuclear form) (Creb312 [1]; [4]): formation of the proteolytically cleaved, nuclear form of Creb312

CC(C)NCC(O)c1ccc(O)c(O)c1 (centres unmarked) [isoproterenol]
proteolytic cleavage of Creb312 (formation of the nuclear form) (Creb312 [1]; [4]): most strongly induced; also recorded: formation of the proteolytically cleaved, nuclear form of Creb312

CNC[C@H](O)c1cccc(O)c1 [phenylephrine]
proteolytic cleavage of Creb312 (formation of the nuclear form) (Creb312 [1]; [4]): most strongly induced; also recorded: formation of the proteolytically cleaved, nuclear form of Creb312

C/C=C(/C)C(=O)O[C@H]1C(C)=C2[C@H]([C@@H]1OC(=O)CCCCCCC)[C@@](C)(OC(C)=O)C[C@H](OC(=O)CCC)[C@@]1(O)[C@H]2OC(=O)[C@@]1(C)O [thapsigargin]
proteolytic cleavage of Creb312 (formation of the nuclear form) (Creb312 [1]; [3]): caused proteolytic cleavage of Creb312

angiotensin-2 (DRVYIHPF; Angiotensin-2; UniProt P01019 25-32, looked up) [hypertrophic agonist]
proteolytic cleavage of Creb312 (formation of the nuclear form) (Creb312 [1]; [4]): formation of the proteolytically cleaved, nuclear form of Creb312

tunicamycin
proteolytic cleavage of Creb312 (formation of the nuclear form) (Creb312 [1]; [3]): to a lesser extend

B1: Creb312(N): nuclear form of Creb312, residues 1-376 of the full length Creb312 (SEQ ID NO: 3) (protein, listed as Homo sapiens)
chain: MEVLESGEQGVLQWDRKLSELSEPGDGEALMYHTHFSELLDEFSQNVLGQLLNDPFLSEKSVSMEVEPSPTSPAPLIQAEHSYSLCEEPRAQSPFTHITTSDSFNDDEVESEKWYLSTDFPSTSIKTEPVTDEPPPGLVPSVTLTITAISTPLEKEEPPLEMNTGVDSSCQTIIPKIKLEPHEVDQFLNFSPKEAPVDHLHLPPTPPSSHGSDSEGSLSPNPRLHPFSLPQTHSPSRAAPRAPSALSSSPLLTAPHKLQGSGPLVLTEEEKRTLIAEGYPIPTKLPLSKSEEKALKKIRRKIKNKISAQESRRKKKEYMDSLEKKVESCSTENLELRKKVEVLENTNRTLLQQLQKLQTLVMGKVSRTCKLAGTQT
ANF regulated luciferase gene expression (ANF promoter region): induced | BNP regulated luciferase gene expression (BNP promoter region; 2 kb promoter region of BNP, FIG. 8C): induced | BNP regulated luciferase gene expression (BNP promoter region; 135 bp promoter region of BNP, FIG. 8D): induced | fold activation of luciferase gene expression (BNP promoter region; (−135 to −115) BNP promoter region, 200 ng DNA, FIG. 10C): three fold

— patent US20100210713A1, “REGENERATION AND SURVIVAL OF CARDIAC PROGENITORS AND CARDIOMYOCYTES WITH A STRETCH ACTIVATED TRANSCRIPTION FACTOR” (THE GENERAL HOSPITAL CORPORATION, priority 2009, published 2010)
